Paper PMC7369893, “Antimicrobial Peptides Display Strong Synergy with Vancomycin Against Vancomycin-Resistant E. faecium, S. aureus, and Wild-Type E. coli” (International Journal of Molecular Sciences, 2020)
Values after ≈ are worked out from the molar mass of the structure shown. Where two headings read alike, the source gives them in different places. Non-standard residues stand in square brackets, D forms with d. Residues, ends and D or L forms follow the SMILES beside them. Dip = N[C@H](C(=O)O)C(c1ccccc1)c1ccccc1

Experiments:
[1] = tested on: E. faecium BCRC 15B0132 (VRE); experiment: microbe, parasite or virus in culture; type: cell-based, Enterococcus faecium
Protocol: (§1) The antibacterial activities of peptides were determined by the standard broth microdilution method according to the guidelines of the Clinical and Laboratory Standards Institute (CLSI). Briefly, E. coli ATCC 25922 were incubated in MHB, and E. faecium BCRC 15B0132, VISA and VRSA strains were incubated in TSB overnight at 37 °C. The cell cultures were regrown to the mid-log phase and subsequently diluted to a final concentration of 5 × 10^5 CFU/mL. The 1 µL peptides or antibiotic were loaded into each well at the final concentration of 64, 32, 16, 8, 4, 2, 1, and 0.5 µg/mL, then loaded 99 µL diluted microbes into each well of polypropylene 96-well plate. After 16 h of incubation at 37 °C, the turbidity at OD600 was measured by the microplate reader. The minimal inhibitory concentration (MIC) value was defined as the lowest concentration of peptide or antibiotic, which inhibited the 90% visible growth of bacteria. All experiments were repeated three times independently.

[2] = tested on: Vancomycin-intermediate S. aureus 01 (VISA01); experiment: microbe, parasite or virus in culture; type: cell-based, Staphylococcus aureus
Protocol: as §1

[3] = tested on: Vancomycin-intermediate S. aureus 02 (VISA02); experiment: microbe, parasite or virus in culture; type: cell-based, Staphylococcus aureus
Protocol: as §1

[4] = tested on: Vancomycin-intermediate S. aureus 03 (VISA03); experiment: microbe, parasite or virus in culture; type: cell-based, Staphylococcus aureus
Protocol: as §1

[5] = tested on: Vancomycin-resistant S. aureus 01 (VRSA01); experiment: microbe, parasite or virus in culture; type: cell-based, Staphylococcus aureus; details: 16 h
Protocol: (§2) For the purpose of inducing vancomycin-resistant Staphylococcus aureus (VRSA), the VISA01, VISA02, and VISA03 bacteria were incubated overnight in culture medium, and transferring 50 µL of bacteria to 5 mL of fresh medium containing 2 μg/mL of vancomycin then incubated overnight. The bacteria were transferred to new tube with doubling vancomycin concentration and then incubated overnight again. The concentration of vancomycin during serial passage was 2, 4, 8, 16, and 32 µg/mL. The procedure was repeated until meeting the final concentration of 32 µg/mL. After serial passage, the cell resistance was confirmed by using an MIC assay.
as §1

[6] = tested on: Vancomycin-resistant S. aureus 02 (VRSA02); experiment: microbe, parasite or virus in culture; type: cell-based, Staphylococcus aureus; details: 16 h
Protocol: as §2, §1

[7] = tested on: Vancomycin-resistant S. aureus 03 (VRSA03); experiment: microbe, parasite or virus in culture; type: cell-based, Staphylococcus aureus; details: 16 h
Protocol: as §2, §1

E. coli ATCC 25922 [8] = experiment: microbe, parasite or virus in culture; type: cell-based, Escherichia coli
Protocol: as §1

[9] = tested on: VRE, VISA, VRSA and E. coli strains; experiment: Checkerboard assay, summary statements of the text over the strain panel; type: cell-based; details: peptide at ¼ ×MIC combined with vancomycin, all strains studied
Protocol: The synergistic effects of peptides in combination with vancomycin were investigated by checkerboard assay with slight modification. The peptides were fixed concentration at ¼ × MIC, then in combination with antibiotics at various concentrations in each well of 96-well plate. Then the peptide/antibiotic were mixed with inoculum (5 × 10^5 CFU/mL) and incubated at 37 °C for 16 h. The fractional inhibitory concentration (FIC) index was calculated as follows: FIC index = (MIC of drug A in combination/MIC of drug A alone) + (MIC of drug B in combination/MIC of drug B alone). An FIC index of ≤ 0.5 was defined as synergy, indifference was defined as an FIC index of 0.5 < FICI ≤ 4, antagonism was defined as an FIC index of > 4. The experiments were performed in triplicate.

[10] = tested on: E. faecium BCRC 15B0132 (VRE); experiment: Time killing assay; type: cell-based, Enterococcus faecium; details: 5 × 10^5 CFU/mL, 1 × MIC, 0.5-24 h, 37 °C, triplicate
Protocol: (§3) The bactericidal activities of vancomycin, P-113, Phe-P-113, Bip-P-113, Dip-P-113, and Nal-P-113 against E. faecium BCRC 15B0132 (VRE) and E. coli ATCC 25922 were assessed by the time-kill analysis. The cells were grown overnight in TSB or MHB at 37 °C with shaking, and then fresh TSB or MHB was inoculated for growth to mid-logarithmic phase. Bacteria (5 × 10^5 CFU/mL) were treated with 1 × MIC vancomycin, P-113, Phe-P-113, Bip-P-113, Dip-P-113, and Nal-P-113 for 0.5, 1, 2, 4, 6, 10, and 24 h at 37 °C. Bacteria without peptides and vancomycin served as a control. Aliquots were removed at each time points, and 10-fold serial dilutions of the aliquot were plated onto the Müller-Hinton agar. The numbers of CFU were counted after 24 h of incubation at 37 °C. The detection limit for the colony counts was 2log10 CFU/mL.

E. faecium BCRC 15B0132 = experiment: Uptake of BODIPY-labeled vancomycin, confocal laser scanning microscopy; type: cell-based, Enterococcus faecium; details: VRE 10^7 CFU/mL, 0.5 ×MIC peptide 30 min at 37 °C, then BODIPY-labeled vancomycin (2 μg/mL) 30 min; mean fluorescence intensity
Protocol: (§4) The fluorescence experiments were performed with slight modification as described previously. Briefly, the bacteria (10^7 CFU/mL) were incubated with 0.5 ×MIC antimicrobial peptides for 30 min and then treated with BODIPY-labeled vancomycin (2 μg/mL) for 30 min. Samples treated with BODIPY-labeled vancomycin only served as a control. After incubation, bacteria were centrifuged at 8000× g for 5 min, washed three times with PBS to remove unbinding fluorescence dye, and resuspended by PBS. The resuspended solution were loaded on the glass slides (Polysine™, Thermo Fisher Scientific, Waltham, MA, USA) and visualized under confocal laser scanning microscope (LSM 510 META, Carl Zeiss, Jena, Thüringen, Germany) equipped with a 64× oil objective lens (Carl Zeiss, Jena, Thüringen, Germany).

E. coli ATCC 25922 [11] = experiment: as above; type: cell-based, Escherichia coli; details: E. coli 10^7 CFU/mL, 0.5 ×MIC peptide 30 min at 37 °C, then BODIPY-labeled vancomycin (2 μg/mL) 30 min; mean fluorescence intensity
Protocol: as §4

[12] = POPC:POPG (3:1, mol/mol) and POPC:LPS (4:1, mol/mol) LUVs; cited from earlier work
From the text: Dathe and coauthors used POPC:LPS as model prokaryotic membranes to study peptide activity against E. coli and the role of LPS [20]. Previously, we have evaluated the membrane-permeability of P-113 and its derivatives by measuring the release of calcein from various phospholipid vesicles such as POPC:POPG (3:1, mol/mol) LUVs (mimic the anionic bacterial membrane) and POPC:LPS (4:1, mol/mol) LUVs (served as surrogates of Gram-negative bacterial membranes that contain LPS). […] Nal- ...

human fibroblasts (HFW) = details: peptide >25 µg/mL; cited from earlier work
[13] = tested on: VRE, VISA, VRSA, and E. coli strains; experiment: microbe, parasite or virus in culture; type: cell-based; details: for MICs against these bacterial strains: 16 h; for MIC: Staphylococcus aureus
Protocol: as §1

E. coli ATCC 25922 [14] = experiment: Time killing assay; type: cell-based, Escherichia coli; details: E. coli ATCC 25922, 5 × 10^5 CFU/mL, 1 × MIC, 0.5-24 h, 37 °C; triplicate
Protocol: as §3

[15] = Vancomycin-intermediate 01 (VISA01, 16 h)
[16] = Vancomycin-intermediate 02 (VISA02, 16 h)
[17] = Vancomycin-intermediate 03 (VISA03, 16 h)
[18] = VRSA01 (induced from VISA01 by serial passage), CLSI broth microdilution, TSB, 5 × 10^5 CFU/mL, 37 °C, triplicate
[19] = VRSA02 (induced from VISA02 by serial passage), CLSI broth microdilution, TSB, 5 × 10^5 CFU/mL, 37 °C, triplicate
[20] = VRSA03 (induced from VISA03 by serial passage), CLSI broth microdilution, TSB, 5 × 10^5 CFU/mL, 37 °C, triplicate

SMILES | MIC ([1]; BCRC 15, 16 h) [µg/mL] | MIC [2, 15] [µg/mL] | MIC [3, 16] [µg/mL] | MIC [4, 17] [µg/mL] | MIC [5, 18] [µg/mL] | MIC [6, 19] [µg/mL] | MIC [7, 20] [µg/mL] | MIC (E. coli ATCC 25922 [8]; ATCC 25922, 16 h) [µg/mL] | synergy with vancomycin (interpretation of FICI) [9] | killing kinetics [10] | entry of BODIPY-labeled vancomycin into the bacteria (rank order) (E. faecium BCRC 15B0132) | entry of BODIPY-labeled vancomycin into the bacteria (rank order) (E. coli ATCC 25922 [11]) | calcein leakage from LUVs [12] | MICs against these bacterial strains [13] [µg/mL] | killing kinetics (E. coli ATCC 25922 [14]) | also measured
CC(=O)N[C@@H](C)C(=O)N[C@@H](CCCCN)C(=O)N[C@@H](CCCNC(=N)N)C(=O)N[C@H](C(=O)N[C@H](C(=O)NCC(=O)N[C@@H](Cc1ccc(O)cc1)C(=O)N[C@@H](CCCCN)C(=O)N[C@@H](CCCNC(=N)N)C(=O)N[C@@H](CCCCN)C(=O)N[C@@H](Cc1ccccc1)C(=O)N[C@H](C(N)=O)C(c1ccccc1)c1ccccc1)C(c1ccccc1)c1ccccc1)C(c1ccccc1)c1ccccc1 [Dip-P-113] (Ac-AKR[Dip][Dip]GYKRKF[Dip]-NH2) | 4 (≈ 2.15 µM) | 16 (≈ 8.58 µM) | 16 (≈ 8.58 µM) | 16 (≈ 8.58 µM) | 32 (≈ 17.2 µM) | 32 (≈ 17.2 µM) | 32 (≈ 17.2 µM) | 64 (≈ 34.3 µM) | synergistic effects against VRE, VRSA 02, and E. coli | rapid bactericidal activity | Bip-P-113 = Nal-P-113 > Dip-P-113 > Phe-P-113 = P-113 | Bip-P-113 > Nal-P-113 > Dip-P-113 > Phe-P-113 = P-113 | dose-dependent calcein leakage |  |  | cell death (MTT) (human fibroblasts (HFW)): 10–20%
CC(=O)N[C@@H](C)C(=O)N[C@@H](CCCCN)C(=O)N[C@@H](CCCNC(=N)N)C(=O)N[C@@H](Cc1c[nH]cn1)C(=O)N[C@@H](Cc1c[nH]cn1)C(=O)NCC(=O)N[C@@H](Cc1ccc(O)cc1)C(=O)N[C@@H](CCCCN)C(=O)N[C@@H](CCCNC(=N)N)C(=O)N[C@@H](CCCCN)C(=O)N[C@@H](Cc1ccccc1)C(=O)N[C@@H](Cc1c[nH]cn1)C(N)=O [P-113] (Ac-AKRHHGYKRKFH-NH2) | >64 | >64 | >64 | >64 | >64 | >64 | >64 | >64 | no synergy | slower or limited killing kinetics | Bip-P-113 = Nal-P-113 > Dip-P-113 > Phe-P-113 = P-113 | Bip-P-113 > Nal-P-113 > Dip-P-113 > Phe-P-113 = P-113 | only weak abilities in causing calcein leakage | > 64 | limited bactericidal activity | 
CC(=O)N[C@@H](C)C(=O)N[C@@H](CCCCN)C(=O)N[C@@H](CCCNC(=N)N)C(=O)N[C@@H](Cc1ccccc1)C(=O)N[C@@H](Cc1ccccc1)C(=O)NCC(=O)N[C@@H](Cc1ccc(O)cc1)C(=O)N[C@@H](CCCCN)C(=O)N[C@@H](CCCNC(=N)N)C(=O)N[C@@H](CCCCN)C(=O)N[C@@H](Cc1ccccc1)C(=O)N[C@@H](Cc1ccccc1)C(N)=O [Phe-P-113] (Ac-AKRFFGYKRKFF-NH2) | >64 | >64 | >64 | >64 | >64 | >64 | >64 | >64 | no synergy | slower or limited killing kinetics | Bip-P-113 = Nal-P-113 > Dip-P-113 > Phe-P-113 = P-113 | Bip-P-113 > Nal-P-113 > Dip-P-113 > Phe-P-113 = P-113 | only weak abilities in causing calcein leakage | > 64 | limited bactericidal activity | 
CN[C@H](CC(C)C)C(=O)N[C@H]1C(=O)N[C@@H](CC(N)=O)C(=O)N[C@H]2C(=O)N[C@H]3C(=O)N[C@H](C(=O)N[C@H](C(=O)O)c4cc(O)cc(O)c4-c4cc3ccc4O)[C@H](O)c3ccc(c(Cl)c3)Oc3cc2cc(c3O[C@@H]2O[C@H](CO)[C@@H](O)[C@H](O)[C@H]2O[C@H]2C[C@](C)(N)[C@H](O)[C@H](C)O2)Oc2ccc(cc2Cl)[C@H]1O [Vancomycin] |  |  |  |  |  |  |  |  |  | slower or limited killing kinetics |  |  |  |  | limited bactericidal activity | MIC ([1]; E. faecium BCRC 15B0132 (VRE), CLSI broth microdilution, TSB, 5 × 10^5 CFU/mL, 16 h, 37 °C, OD600, 90% growth inhibition, triplicate): 64 µg/mL (≈ 44.2 µM); MIC ([1]; Enterococcus faecium, VRE, 16 h): 64 µg/mL (≈ 44.2 µM); MIC ([2]; Staphylococcus aureus, 16 h): 4 µg/mL (≈ 2.76 µM); MIC ([3]; Staphylococcus aureus, 16 h): 4 µg/mL (≈ 2.76 µM); MIC ([4]; Staphylococcus aureus, 16 h): 4 µg/mL (≈ 2.76 µM); MIC ([5]; Staphylococcus aureus): 32 µg/mL (≈ 22.1 µM); MIC ([6]; Staphylococcus aureus): 32 µg/mL (≈ 22.1 µM); MIC ([7]; Staphylococcus aureus): 32 µg/mL (≈ 22.1 µM); MIC (E. coli ATCC 25922 [8]; E. coli ATCC 25922, CLSI broth microdilution, MHB, 5 × 10^5 CFU/mL, 16 h, 37 °C, OD600, 90% growth inhibition, triplicate): > 64 µg/mL; MIC (E. coli ATCC 25922 [8]; Escherichia coli, ATCC25922, 16 h): > 64 µg/mL; MIC ([13]; read-out: MIC against VISA strains): 4 µg/mL (≈ 2.76 µM); MIC ([13]; read-out: MIC against VRSA strains): 32 µg/mL (≈ 22.1 µM)
